Assay [1] concerns the target T1, IDO1 (Homo sapiens, UniProt P14902). The assay can be described thus: IDO1 Human Whole blood Assay. Format: cell-based. Details: Human whole blood was drawn in sodium heparin coated tubes from healthy internal donors; from tissue; host or cells: human whole blood from healthy donors, stimulated with LPS and IFNγ. The conditions noted are these: LPS and IFNγ stimulated, 18 h, read-out: Human Whole Blood Potency, IC50. How it is done: IDO1Human Whole blood Assay
Compounds to be tested were serially diluted in ten 3-fold steps in DMSO starting from 10 mM. 3 μL of compound dilutions or DMSO alone were then dispensed from the dilution plate into a polypropylene 96-well assay plate containing 97 μL of RPMI medium using an Echo 555 acoustic liquid handler (Labcyte). LPS and IFNγ was prepared in RPMI medium to a 10× of final conc. (1000 ng/mL), final concentration is 100 ng/mL.
Human whole blood was drawn in sodium heparin coated tubes from healthy internal donors. 240 μL of blood was transferred to each of the wells of a v-bottom 96 well plate. 30 μL of compound was transferred from intermediate dilution plate, and incubated for 15 min. 30 μL from stimulants was then transferred to blood and mixed thoroughly. Plate was covered with breathable membrane and incubated at 37° C. for overnight (18 h).
On day 2, isotope labeled standard solutions of kynurenine and tryptophan was made in water at 10× concentration and 30 μL was added to the blood at 3 μM final concentration. The assay plates were centrifuged at 300×G for 10 min with no brake to separate plasma from red blood cells. 60 μL of plasma samples was removed without disturbing red blood cells. Plasma was diluted with RPMI in 1:1 ratio and proteins were precipitated out with two volumes of Acetonitrile. The plates were centrifuged at 4000×G for 60 min. 20 μL of supernatant was carefully transferred to a 384 well plate containing 40 μL of 0.1% formic acid in water and analyzed by LC/MS/MS.
LC/MS/MS analyses were performed using Thermo Fisher's LX4-TSQ Quantum Ultra system. This system consists of four Agilent binary high-performance liquid chromatography (HPLC) pumps and a TSQ Quantum Ultra triple quadrupole MS/MS instrument. For each sample, 5 μL were injected onto an Atlantis T3 column (2.1 mm×150 mm, 3 μm particle size) from Waters. The mobile phase gradient pumped at 0.8 mL/min was used to elute the analytes from the column at 25° C. The elution started at 0% B increasing linearly to 25% B at 6.5 min, holding at 25% for 1 min, re-equilibrating to 10 min. Mobile phase A consisted of 0.1% formic acid in water. Mobile phase B consisted of 0.1% of formic acid in acetonitrile. Data were acquired in positive mode using a HESI interface. The operational parameters for the TSQ Quantum Ultra instrument were a spray voltage of 4000 V, capillary temperature of 380° C., vaporizer temperature 400° C., shealth gas 60 arbitrary units, Aux gas 20 arbitrary units, tube lens 85 and collision gas 1.2 mTorr. SRM chromatograms of kynurenine (Q1: 209.2>Q3:94.0) and internal standard (Q1: 215.3>Q3:98.2) were collected for 90 sec. The peak area was integrated by Xcalibur Quan software. The ratios between the kynurenine generated in the reaction and 2D6-Kynurenine spiked-in internal standard were used to generate percentage inhibition and IC50 values. Compounds were titrated and IC50's were calculated by 4 parameter sigmoidal curve fitting formula.

Assay [2] deals with T1, IDO1. Kind of assay: IDO1 Cellular Assay in HeLa Cells Stimulated with IFNγ. The class given is cell-based. Conditions: read-out: HeLa Cell Potency, IC50.

T1 sequence (P14902 whole entry): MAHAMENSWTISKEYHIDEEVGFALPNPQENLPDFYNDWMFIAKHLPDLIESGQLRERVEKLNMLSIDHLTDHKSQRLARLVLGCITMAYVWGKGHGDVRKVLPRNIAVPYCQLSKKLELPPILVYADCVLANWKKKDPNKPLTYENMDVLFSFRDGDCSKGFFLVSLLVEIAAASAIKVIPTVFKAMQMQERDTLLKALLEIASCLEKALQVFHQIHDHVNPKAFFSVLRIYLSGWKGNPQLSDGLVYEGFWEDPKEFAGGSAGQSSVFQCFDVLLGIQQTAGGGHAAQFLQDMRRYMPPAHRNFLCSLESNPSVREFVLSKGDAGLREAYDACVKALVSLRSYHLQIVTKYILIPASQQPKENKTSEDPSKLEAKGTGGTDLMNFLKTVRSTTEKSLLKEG

As to `Cc1cccc(N2CCN(C(=O)Cn3nc(C(=O)N4CCC(O)C(F)C4)c4c3CCC4)C3(CC3)C2)c1C` (single isomer, unassigned) [Example 395, 1-(7-(2,3-dimethylphenyl)-4,7-diazaspiro[2.5]octan-4-yl)-2-(3-(3-fluoro-4-hydroxypiperidine-1-carbonyl)-5,6-dihydrocyclopenta[c]pyrazol-1(4H)-yl)ethanone], the figures for the 50% inhibitory concentration (IC50) at IDO1 [1] and on IDO1 [2] were 4160 nM and 6.86 nM, respectively.

For `Cc1cccc(N2CCN(C(=O)Cn3nc(C(=O)N4CCC(O)C(F)C4)c4c3CCC4)C3(CC3)C2)c1C` (single isomer, unassigned) [Example 396, 1-(7-(2,3-dimethylphenyl)-4,7-diazaspiro[2.5]octan-4-yl)-2-(3-(3-fluoro-4-hydroxypiperidine-1-carbonyl)-5,6-dihydrocyclopenta[c]pyrazol-1(4H)-yl)ethanone], the IC50 (in general, the concentration that gives 50% inhibition) on IDO1 [1] came out at 625 nM; at IDO1 [2], 4.08 nM.

As to `Cc1cccc(N2CCN(C(=O)Cn3nc(C(=O)N4CC[C@@H](O)[C@@H](F)C4)c4c3CC(F)C4)CC2)c1C` (single isomer, unassigned) [Example 418], the figures for the IC50 at IDO1 [1] and on IDO1 [2] were 2470 nM and 31.7 nM, respectively.

As to `Cc1cccc(N2CCN(C(=O)Cn3nc(C(=O)N4CC[C@@H](O)[C@@H](F)C4)c4c3CC(F)C4)CC2)c1C` (single isomer, unassigned) [Example 419], the IC50 at IDO1 [1] was determined as 1150 nM; on IDO1 [2], 10.8 nM.

Consider `Cc1c(F)ccc(N2CCN(C(=O)Cn3nc(C(=O)N4CCC(O)C(CO)C4)c4c3C[C@@H]3C[C@H]43)C3(CC3)C2)c1C` (stereo in doubt) [Example 324, 1-[7-(4-fluoro-2,3-dimethylphenyl)-4,7-diazaspiro[2.5]octan-4-yl]-2-{(3bS,4aS)-3-[4-hydroxy-3-(hydroxymethyl)piperidine-1-carbonyl]-3b,4,4a,5-tetrahydro-1H-cyclopropa[3,4]cyclopenta[1,2-c]pyrazol-1-yl}ethan-1-one], for which the 50% inhibitory concentration (IC50) on IDO1 [1] was 555 nM; on IDO1 [2], 0.64 nM.

Regarding `Cc1cccc(N2CCN(C(=O)Cn3nc(C(=O)N4CCCC4)c4c3CCC4)CC2)c1C` [Example 1, 1-(4-(2,3-dimethylphenyl)piperazin-1-yl)-2-(3-(pyrrolidine-1-carbonyl)-5,6-dihydrocyclopenta[c]pyrazol-1(4H)-yl)ethanone], the half-inhibitory concentration (IC50) is 1820 nM at IDO1 [1] and 8.75 nM on IDO1 [2].

Consider `Cc1cccc(N2CCN(C(=O)Cn3nc(C(=O)N4CCCC4)c4c3CCCC4)CC2)c1C` [Example 2, 1-[4-(2,3-dimethylphenyl)piperazin-4-ium-1-yl]-2-[3-(pyrrolidine-1-carbonyl)-4,5,6,7-tetrahydroindazol-1-yl]ethanone], for which the IC50 on IDO1 [1] was 555 nM; at IDO1 [2] it was 4.88 nM.

Take `Cc1cccc(N2CCN(C(=O)Cn3nc(C(=O)N4CCCC4)c4c3CCCCC4)CC2)c1C` [Example 5, 1-[4-(2,3-dimethylphenyl)piperazin-4-ium-1-yl]-2-[3-(pyrrolidine-1-carbonyl)-5,6,7,8-tetrahydro-4H-cyclohepta[c]pyrazol-1-yl]ethanone]: the half-inhibitory concentration (IC50) amounted to 414 nM on IDO1 [1] and 6.83 nM at IDO1 [2].

Regarding `Cc1c(F)ccc(N2CCN(C(=O)Cn3nc(C(=O)N4C[C@@H](C)O[C@@H](C)C4)c4c3CCC4)CC2)c1C` [Example 48, 2-{3-[(2R,6S)-2,6-dimethylmorpholine-4-carbonyl]-5,6-dihydrocyclopenta[c]pyrazol-1(4H)-yl}-1-[4-(4-fluoro-2,3-dimethylphenyl)piperazin-1-yl]ethan-1-one], the IC50 at IDO1 [1] was found to be 492 nM; at IDO1 [2], 2.93 nM.

For the compound `Cc1c(Cl)cccc1N1CCN(C(=O)Cn2nc(C(=O)N3C[C@@H](C)O[C@@H](C)C3)c3c2CCC3)CC1` [Example 68, 1-[4-(3-chloro-2-methylphenyl)piperazin-1-yl]-2-{3-[(2R,6S)-2,6-dimethylmorpholine-4-carbonyl]-5,6-dihydrocyclopenta[c]pyrazol-1(4H)-yl}ethan-1-one], the 50% inhibitory concentration (IC50) at IDO1 [1] is 1010 nM; on IDO1 [2], 3.6 nM.

Turning to `Cc1cccc(N2CCN(C(=O)Cn3nc(C(=O)N4CC[C@H](CO)C4)c4c3CCC4)CC2)c1C` [Example 83, 1-[4-(2,3-dimethylphenyl)piperazin-1-yl]-2-{3-[(3S)-3-(hydroxymethyl)pyrrolidine-1-carbonyl]-5,6-dihydrocyclopenta[c]pyrazol-1(4H)-yl}ethan-1-one], the half-inhibitory concentration (IC50) amounted to 3490 nM at IDO1 [1] and 5.63 nM on IDO1 [2].

On to `Cc1cccc(N2CCN(C(=O)Cn3nc(C(=O)N4CCC(O)CC4)c4c3CCC4)CC2)c1C` [Example 87, 1-[4-(2,3-dimethylphenyl)piperazin-1-yl]-2-[3-(4-hydroxypiperidine-1-carbonyl)-5,6-dihydrocyclopenta[c]pyrazol-1(4H)-yl]ethan-1-one], for which the results for the IC50 at IDO1 [1] and at IDO1 [2] were 2300 nM and 4.27 nM, respectively.

For the compound `Cc1cccc(N2CCN(C(=O)Cn3nc(C(=O)N4C[C@@H](C)O[C@@H](C)C4)c4c3CCC4)CC2)c1C` [Example 88, 2-{3-[(2R,6S)-2,6-dimethylmorpholine-4-carbonyl]-5,6-dihydrocyclopenta[c]pyrazol-1(4H)-yl}-1-[4-(2,3-dimethylphenyl)piperazin-1-yl]ethan-1-one], the results for the concentration for half-maximal inhibition (IC50) at IDO1 [1] and on IDO1 [2] were 416 nM and 2.56 nM, respectively.

For the compound `Cc1cccc(N2CCN(C(=O)Cn3nc(C(=O)N4CCN(S(=O)(=O)N(C)C)CC4)c4c3CCC4)CC2)c1C` [Example 89, 4-(1-{2-[4-(2,3-dimethylphenyl)piperazin-1-yl]-2-oxoethyl}-1,4,5,6-tetrahydrocyclopenta[c]pyrazole-3-carbonyl)-N,N-dimethylpiperazine-1-sulfonamide], the half-maximal inhibitory concentration (IC50) at IDO1 [1] turned out to be 454 nM; on IDO1 [2] it was 2.96 nM.

On to `Cc1cccc(N2CCN(C(=O)Cn3nc(C(=O)N4CCC(NS(C)(=O)=O)CC4)c4c3CCC4)CC2)c1C` [Example 90, N-[1-(1-{2-[4-(2,3-dimethylphenyl)piperazin-1-yl]-2-oxoethyl}-1,4,5,6-tetrahydrocyclopenta[c]pyrazole-3-carbonyl)piperidin-4-yl]methanesulfonamide], for which the half-inhibitory concentration (IC50) came to 292 nM at IDO1 [1] and 2.9 nM on IDO1 [2].

Regarding `Cc1cccc(N2CCN(C(=O)Cn3nc(C(=O)N4CC[C@@H](O)[C@H](F)C4)c4c3CCC4)CC2)c1C` [Example 91, 1-[4-(2,3-dimethylphenyl)piperazin-1-yl]-2-{3-[(3R,4R)-3-fluoro-4-hydroxypiperidine-1-carbonyl]-5,6-dihydrocyclopenta[c]pyrazol-1(4H)-yl}ethan-1-one], the IC50 at IDO1 [1] was determined as 9550 nM; at IDO1 [2] it was 5.8 nM.

Take `Cc1cccc(N2CCN(C(=O)Cn3nc(C(=O)N4CC[C@H](O)[C@H](F)C4)c4c3CCC4)CC2)c1C` [Example 92, 1-[4-(2,3-dimethylphenyl)piperazin-1-yl]-2-{3-[(3R,4S)-3-fluoro-4-hydroxypiperidine-1-carbonyl]-5,6-dihydrocyclopenta[c]pyrazol-1(4H)-yl}ethan-1-one]: the IC50 on IDO1 [1] was 256 nM; at IDO1 [2] it was 10.8 nM.

With `Cc1cccc(N2CCN(C(=O)Cn3nc(C(=O)N4CCC5(CCOC5)CC4)c4c3CCC4)CC2)c1C` [Example 93, 1-[4-(2,3-dimethylphenyl)piperazin-1-yl]-2-[3-(2-oxo-8-azaspiro[4.5]decane-8-carbonyl)-5,6-dihydrocyclopenta[c]pyrazol-1(4H)-yl]ethan-1-one], the IC50 on IDO1 [1] amounted to 180 nM; on IDO1 [2], 3.11 nM.

As for `Cc1cccc(N2CCN(C(=O)Cn3nc(C(=O)N4CC[C@H](O)[C@@H](C)C4)c4c3CCC4)CC2)c1C` [Example 94, 1-[4-(2,3-dimethylphenyl)piperazin-1-yl]-2-{3-[(3S,4S)-4-hydroxy-3-methylpiperidine-1-carbonyl]-5,6-dihydrocyclopenta[c]pyrazol-1(4H)-yl}ethan-1-one], the IC50 came to 345 nM on IDO1 [1] and 2.46 nM on IDO1 [2].

The values are drawn from US12264134B2 (Merck Sharp & Dohme LLC, priority 2018, dated 2025).
